Patent US20250388597A1, “BIFUNCTIONAL PHOTOCROSSLINKING PROBES FOR COVALENT CAPTURE OF PROTEIN-NUCLEIC ACID COMPLEXES IN CELLS” (UNIVERSITY OF SOUTHERN CALIFORNIA, priority 2022, published 2025)

What was measured:
[1] = molecular target: T1, FOXP3 covalently linked to genomic DNA in HEK293T cells (Homo sapiens, UniProt Q9BZS1); assay: TRIzol extraction of genomic DNA from BFPX-treated HEK293T cells, Benzonase digestion, anti-FLAG western blot; assay type: cell-based; conditions: probe 100 μM + UV (lanes 4 and 5) vs controls (lane 1-3)
T1 construct: AVI tag (N); TEV site (N); expressed in transfected cells; host or cells: HEK293T
T1 sequence (Q9BZS1 1-431): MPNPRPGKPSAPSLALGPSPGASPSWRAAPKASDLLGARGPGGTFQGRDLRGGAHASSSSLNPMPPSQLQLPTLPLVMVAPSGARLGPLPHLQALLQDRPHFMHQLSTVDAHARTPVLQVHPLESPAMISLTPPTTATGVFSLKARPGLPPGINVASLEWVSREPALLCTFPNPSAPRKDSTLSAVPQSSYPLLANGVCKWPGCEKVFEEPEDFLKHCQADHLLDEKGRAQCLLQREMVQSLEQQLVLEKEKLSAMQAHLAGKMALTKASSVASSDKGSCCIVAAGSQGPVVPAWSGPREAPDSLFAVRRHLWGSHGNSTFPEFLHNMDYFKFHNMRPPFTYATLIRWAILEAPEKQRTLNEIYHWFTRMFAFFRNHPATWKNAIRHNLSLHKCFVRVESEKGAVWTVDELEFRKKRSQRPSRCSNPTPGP
Experimental: FIG. 14D depicts for the same BFPX-treated HEK293T cells transfected with AVI-TEV-FLAG-FOXP3 described in (FIG. 14C), TRIzol was used to extract genomic DNA. Briefly, for each aliquot of 0.25 million of cells, lyse and homogenize the sample in 200 μl TRIzol™ Reagent. Incubate for 5 minutes to permit complete dissociation of the nucleoproteins complex. 40 μl of chloroform was then added to the sample to incubate for 3 min. The sample was then centrifuged for 15 minutes at 12,000×g at 4° C. to separate into a lower red phenol/chloroform-interphase layer and a colorless upper aqueous phase. The upper aqueous phase was removed by pipetting. […] Run at 200V for 40 minutes on 4%-15% SDS-PAGE gel and analyzed by western blot (Transfer at 20V (40 mA) overnight, block in 2% BSA in PBS for 45 min, Primary antibody: 1:2000 anti-FLAG; room temperature, 2 hr; Secondary antibody: anti mouse light chain kappa 1:100,000; SuperSignal™ Western Blot Substrate Bundle, Femto).
TRIzol uses strong denaturing reagent (e.g. 4 M guanidine thiocyanate) to lyse the cells and completely dissociate nucleoprotein complexes. The extracted genomic DNA was then digested extensively with Benzonase and analyzed by SDS PAGE gel and western blot. […]

FOXP3 in Hela cells = molecular target: T2, FOXP3 in Hela cells (Homo sapiens, UniProt Q9BZS1); assay: Capture of AVI-TEV-FLAG tagged FOXP3 complexes in transfected Hela cells, western blot; assay type: cell-based
T2 construct: AVI tag; TEV site; expressed in transfected cells; host or cells: Hela
T2 sequence (Q9BZS1 1-431): T1 sequence (Q9BZS1 1-431)
Experimental: FIG. 10B depicts Western blot analysis of Hela cells transfected with AVI-TEV-FLAG tagged FOXP3. For each lane, approximately one million of cells were used. Lane 1 was fixed with 1% formaldehyde (FA) for 10 min according to standard protocol. Lane 2, untreated control, Lane 3, UV only, lane 4 and lane 6 were treated with SPB-AAD of 1 or 10 μM, respectively but without UV illumination, lane 5 and lane 7 were treated with SPB-AAD of 1 or 10 μM, respectively and illuminated by UV365 (10 min, 30 W, LED, sample distance 3 cm, cooling at 4 degree C.). The cells were lysed using RIPA buffer and further digested by MNase. The sample mixtures were mixed with SDS loading dye (2% SDS, boil for 10 min) and run on SDS gel for western blot analyses of using Anti-FLAG antibody.
We have performed similar experiments with a different system, Hela cells transfected with AVI-TEV-FLAG tagged FOXP3.

With `C#CCCC1(CCNC(=O)CCCOc2c3occc3cc3ccc(=O)oc23)N=N1` [SPB-AAD, N-(2-(3-(but-3-yn-1-yl)-3H-diazirin-3-yl)ethyl)-4-((7-oxo-7H-furo[3,2-g]chromen-9-yl)oxy)butanamide] the “FOXP3 co-extracted with genomic DNA under strong denaturing conditions” value [1] was “showed FOXP3 proteins”, the “dependence of higher molecular weight FOXP3 complex formation on probe concentration” value (FOXP3 in Hela cells; 10 μM (lane 7) vs 1 μM (lane 5)) was “dosage dependent” and the “capture of higher molecular weight FOXP3 complexes” value (FOXP3 in Hela cells; probe 1 or 10 μM + UV365 10 min (lanes 5 and 7)) was “can capture higher molecular weight FOXP3 complexes”.
